Assay results: ChEMBL document CHEMBL3046627, “Synthesis and in vitro study of antibacterial, antifungal activities of some novel bisquinolines” (2013)
In brackets after ≈: the same amount, converted by molar mass. Activity calls are given as the source filed them. The calls are words filed in the database; no cut-off is given here.

Tests used:
Staphylococcus aureus [1] = experiment: Antibacterial activity against Staphylococcus aureus 29737 assessed as growth inhibition at MIC after 24 hr by agar dilution method; format: functional
Klebsiella pneumoniae [2] = experiment: Antibacterial activity against Klebsiella pneumoniae J/I/4 assessed as growth inhibition after 24 hr by agar dilution method; format: functional
Escherichia coli [3] = experiment: Antibacterial activity against Escherichia coli 319 assessed as growth inhibition after 24 hr by agar dilution method; format: functional
Klebsiella pneumoniae [4] = experiment: Antibacterial activity against Klebsiella pneumoniae J/I/4 assessed as cell wall deformation at MIC after 24 hr by scanning electron microscopic analysis relative to untreated control; format: functional, organism-based
Shigella dysenteriae [5] = experiment: Antibacterial activity against Shigella dysenteriae 15 assessed as growth inhibition after 24 hr by agar dilution method; format: functional
Klebsiella pneumoniae [6] = experiment: Antibacterial activity against Klebsiella pneumoniae J/I/4 assessed as growth inhibition at MIC after 24 hr by agar dilution method; format: functional
Micrococcus luteus [7] = experiment: Antibacterial activity against Micrococcus luteus ATCC 9341 assessed as growth inhibition at MIC after 24 hr by agar dilution method; format: functional
Micrococcus luteus [8] = experiment: Antibacterial activity against Micrococcus luteus ATCC 9341 assessed as growth inhibition after 24 hr by agar dilution method; format: functional
Vibrio cholerae [9] = experiment: Antibacterial activity against Vibrio cholerae 759 assessed as growth inhibition after 24 hr by agar dilution method; format: functional
Bacillus pumilus [10] = experiment: Antibacterial activity against Bacillus pumilus 11778 assessed as growth inhibition at MIC after 24 hr by agar dilution method; format: functional
Pseudomonas aeruginosa [11] = experiment: Antibacterial activity against Pseudomonas aeruginosa 71 assessed as growth inhibition after 24 hr by agar dilution method; format: functional
Candida tropicalis [12] = experiment: Antifungal activity against Candida tropicalis assessed as growth inhibition after 96 hr by agar dilution method; format: functional
Escherichia coli [13] = experiment: Antibacterial activity against Escherichia coli 319 assessed as growth inhibition at MIC after 24 hr by agar dilution method; format: functional
Shigella dysenteriae [14] = experiment: Antibacterial activity against Shigella dysenteriae 15 assessed as growth inhibition at MIC after 24 hr by agar dilution method; format: functional
Pseudomonas aeruginosa [15] = experiment: Antibacterial activity against Pseudomonas aeruginosa 71 assessed as growth inhibition at MIC after 24 hr by agar dilution method; format: functional
Klebsiella pneumoniae [16] = experiment: Antibacterial activity against Klebsiella pneumoniae J/I/4 assessed as growth inhibition at MIC; format: functional, organism-based; conditions: TDE = time-dependent effect
Staphylococcus aureus [17] = experiment: Antibacterial activity against Staphylococcus aureus 29737 assessed as growth inhibition after 24 hr by agar dilution method; format: functional
Bacillus pumilus [18] = experiment: Antibacterial activity against Bacillus pumilus 11778 assessed as growth inhibition after 24 hr by agar dilution method; format: functional
Klebsiella pneumoniae [19] = experiment: Antibacterial activity against Klebsiella pneumoniae J/I/4 assessed as cell agglomeration at MIC after 24 hr by scanning electron microscopic analysis relative to untreated control; format: functional, organism-based
Candida albicans [20] = experiment: Antifungal activity against Candida albicans assessed as growth inhibition after 96 hr by agar dilution method; format: functional
Vibrio cholerae [21] = experiment: Antibacterial activity against Vibrio cholerae 759 assessed as growth inhibition at MIC after 24 hr by agar dilution method; format: functional
Aspergillus niger [22] = experiment: Antifungal activity against Aspergillus niger assessed as growth inhibition after 96 hr by agar dilution method; format: functional
Cryptococcus neoformans [23] = experiment: Antifungal activity against Cryptococcus neoformans assessed as growth inhibition after 96 hr by agar dilution method; format: functional
Candida albicans [24] = experiment: Antifungal activity against Candida albicans assessed as growth inhibition at MIC after 96 hr by agar dilution method; format: functional
Candida tropicalis [25] = experiment: Antifungal activity against Candida tropicalis assessed as growth inhibition at MIC after 96 hr by agar dilution method; format: functional
Aspergillus niger [26] = experiment: Antifungal activity against Aspergillus niger assessed as growth inhibition at MIC after 96 hr by agar dilution method; format: functional
Cryptococcus neoformans [27] = experiment: Antifungal activity against Cryptococcus neoformans assessed as growth inhibition at MIC after 96 hr by agar dilution method; format: functional
[28] = Pseudomonas aeruginosa, 71, 24 h
[29] = Staphylococcus aureus, 29737, 24 h

Row | SMILES | diameter of the inhibition zone (DIZ) (Staphylococcus aureus [1]) | MIC (Klebsiella pneumoniae [2]; J/I/4, 24 h) [µg/mL] | MIC (Escherichia coli [3]; Escherichia coli, 319, 24 h) [µg/mL] | MIC (Shigella dysenteriae [5]; Shigella dysenteriae, 15, 24 h) [µg/mL] | diameter of the inhibition zone (DIZ) (Klebsiella pneumoniae [6]) [mm] | diameter of the inhibition zone (DIZ) (Micrococcus luteus [7]) [mm] | MIC (Micrococcus luteus [8]; ATCC 9341, 24 h) [µg/mL] | MIC (Vibrio cholerae [9]; Vibrio cholerae, 759, 24 h) [µg/mL] | diameter of the inhibition zone (DIZ) (Bacillus pumilus [10]) | MIC (Pseudomonas aeruginosa [11]; [28]) [µg/mL] | MIC (Candida tropicalis [12]) | diameter of the inhibition zone (DIZ) (Escherichia coli [13]) | diameter of the inhibition zone (DIZ) (Shigella dysenteriae [14]) | diameter of the inhibition zone (DIZ) (Pseudomonas aeruginosa [15]) | MIC (Staphylococcus aureus [17]; [29]) [µg/mL] | MIC (Bacillus pumilus [18]; Bacillus pumilus, 11778, 24 h) [µg/mL] | MIC (Candida albicans [20]) | diameter of the inhibition zone (DIZ) (Vibrio cholerae [21]) | MIC (Aspergillus niger [22]) | MIC (Cryptococcus neoformans [23]) | further results
1 | Clc1ccc(OCc2cc3ccccc3cc2COc2ccc(Cl)c3cccnc23)c2ncccc12 | 6 mm | 32 (≈ 62.6 µM) | 32 (≈ 62.6 µM) | > 500 | 7 | 8 | 32 (≈ 62.6 µM) | 128 (≈ 250 µM) | 8 mm | > 500 | inactive | 7.2 mm | inactive | inactive | > 500 | 32 (≈ 62.6 µM) | inactive | 8 mm | inactive | inactive | Activity (Klebsiella pneumoniae [4]): Active; growth inhibition (GI) (Klebsiella pneumoniae [16]): tde; Activity (Klebsiella pneumoniae [19]): Active
2 | Clc1ccc(OCc2nc3ccccc3nc2COc2ccc(Cl)c3cccnc23)c2ncccc12 | inactive | > 500 | 32 (≈ 62.3 µM) | > 500 | 6 | 7 | 32 (≈ 62.3 µM) | > 500 | 8 mm | > 500 | 1500 µg/mL (≈ 2920 µM) | 8 mm | 6 mm | inactive | > 500 | 32 (≈ 62.3 µM) | 1000 µg/mL (≈ 1950 µM) | inactive | 1000 µg/mL (≈ 1950 µM) | inactive | diameter of the inhibition zone (DIZ) (Candida albicans [24]): 7.8 mm; diameter of the inhibition zone (DIZ) (Candida tropicalis [25]): 7.5 mm; diameter of the inhibition zone (DIZ) (Aspergillus niger [26]): 7.5 mm; diameter of the inhibition zone (DIZ) (Cryptococcus neoformans [27]): inactive
3 | c1ccc(COc2cccc3cccnc23)c(COc2cccc3cccnc23)c1 | 7.2 mm | 32 (≈ 81.5 µM) | > 500 | 32 (≈ 81.5 µM) | 8 | 7 | > 500 | > 500 | inactive | > 500 | inactive | inactive | 6.5 mm | 6 mm | 32 (≈ 81.5 µM) | 500 (≈ 1270 µM) | inactive | inactive | inactive | inactive | diameter of the inhibition zone (DIZ) (Candida albicans [24]): inactive; diameter of the inhibition zone (DIZ) (Candida tropicalis [25]): inactive; diameter of the inhibition zone (DIZ) (Aspergillus niger [26]): inactive; diameter of the inhibition zone (DIZ) (Cryptococcus neoformans [27]): inactive
4 | Clc1ccc(OCc2cccc(COc3ccc(Cl)c4cccnc34)c2)c2ncccc12 | 8 mm | 32 (≈ 69.4 µM) | > 500 | 32 (≈ 69.4 µM) | 6 | 8 | 64 (≈ 139 µM) | 256 (≈ 555 µM) | inactive | 256 (≈ 555 µM) | 1000 µg/mL (≈ 2170 µM) | inactive | 8 mm | 6 mm | 128 (≈ 277 µM) | > 500 | inactive | 6 mm | 1000 µg/mL (≈ 2170 µM) | inactive | diameter of the inhibition zone (DIZ) (Candida albicans [24]): inactive; diameter of the inhibition zone (DIZ) (Candida tropicalis [25]): 7 mm; diameter of the inhibition zone (DIZ) (Aspergillus niger [26]): 8 mm; diameter of the inhibition zone (DIZ) (Cryptococcus neoformans [27]): inactive
5 | Cc1ccc2cccc(OCc3cccc(COc4cccc5ccc(C)nc45)c3)c2n1 |  |  |  |  |  |  |  |  |  |  | inactive |  |  |  |  |  | inactive |  | inactive | inactive | MIC (Klebsiella pneumoniae [2]): inactive; MIC (Escherichia coli [3]): inactive; diameter of the inhibition zone (DIZ) (Candida albicans [24]): inactive; diameter of the inhibition zone (DIZ) (Candida tropicalis [25]): inactive; diameter of the inhibition zone (DIZ) (Aspergillus niger [26]): inactive; MIC (Shigella dysenteriae [5]): inactive; MIC (Micrococcus luteus [8]): inactive; MIC (Vibrio cholerae [9]): inactive; MIC (Pseudomonas aeruginosa [11]): inactive; diameter of the inhibition zone (DIZ) (Cryptococcus neoformans [27]): inactive; MIC (Staphylococcus aureus [17]): inactive; MIC (Bacillus pumilus [18]): inactive
6 | Cc1ccc2cccc(OCc3ccccc3COc3cccc4ccc(C)nc34)c2n1 | 6 mm | 32 (≈ 76.1 µM) | > 1000 | 32 (≈ 76.1 µM) | 8 | 7 | 128 (≈ 304 µM) | 64 (≈ 152 µM) | 7 mm | > 500 | 2000 µg/mL (≈ 4760 µM) | inactive | 8 mm | inactive | 128 (≈ 304 µM) | > 500 | inactive | 8 mm | 1000 µg/mL (≈ 2380 µM) | inactive | diameter of the inhibition zone (DIZ) (Candida albicans [24]): inactive; diameter of the inhibition zone (DIZ) (Candida tropicalis [25]): 7 mm; diameter of the inhibition zone (DIZ) (Aspergillus niger [26]): 9 mm; diameter of the inhibition zone (DIZ) (Cryptococcus neoformans [27]): inactive
